# Values of other authors as cited in patent publication US20200147118A1, “COMPOSITIONS AND METHODS FOR DETECTION, RISK ASSESSMENT AND TREATMENT OF DIABETES, OBESITY, AND INFLAMMATION” (OTTAWA HEART INSTITUTE RESEARCH CORPORATION, priority 2018, published 2020).
# Tested on: iNKTs
# Conditions: obese mice, WT vehicle vs WT αGalCer, dataset GSE36032
compound,measurement,value
CCCCCCCCCCCCCCCCCCCCCCCCCC(=O)N[C@@H](CO[C@H]1O[C@H](CO)[C@H](O)[C@H](O)[C@H]1O)[C@H](O)[C@H](O)CCCCCCCCCCCCCC [αGalCer],E4bp4 expression in adipose tissue,increases
same,Ripk1 expression in adipose tissue,reduces
